In general, IC50 refers to the concentration that inhibits the measured activity by half.

We go through 33 compounds from patent US8252781B2, “1,2-diazetidin-3-one derivatives and drugs containing same” (Kowa Company, Ltd., priority 2008, dated 2012).

The target of one assay is T1, human 11β-HSD1 (Homo sapiens, UniProt P28845).
T1 construct: The obtained PCR products of about 0.9 kbp, 1.2 kbp, and 0.9 kbp were subcloned into an expression vector pcDNA3.1+/Zeo; expressed in transfected cells
The assay is described as follows: Enzyme inhibitory activity, human 11β-HSD1 (lysate of stably expressing HEK293 cells, cortisol by competitive ELISA). It counts as biochemical. Conditions: human 11β-HSD1, cell lysate, 37° C. for 1 hour, read-out: h HSD1 in vitro assay (IC50 uM). The method in brief: (§1)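 Sonicated lysates of stably transfected cells (diluted to 0.1–0.4 mg/mL before addition) reacted for 1 h at 37 °C in pH 7.4 Tris/sucrose/EGTA/EDTA/MgCl2 buffer with 100 nmol/L cortisone or cortisol and 400 μmol/L NADPH or NAD+, then were heat-stopped at 95 °C. Inhibition rate = 100 minus residual activity.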
On the technique in general: An ELISA detects its analyte on a solid surface through an enzyme-linked reagent.

The target of a further assay is T2, mouse 11β-HSD1 (Mus musculus, UniProt P50172).
T2 construct: The obtained PCR products of about 0.9 kbp, 1.2 kbp, and 0.9 kbp were subcloned into an expression vector pcDNA3.1+/Zeo; expressed in transfected cells
The assay is described as follows: Enzyme inhibitory activity, mouse 11β-HSD1 (lysate of stably expressing CHO-K1 cells, cortisol by competitive ELISA). The format is biochemical. To be noted: Table 2; mouse 11β-HSD1, cell lysate, 37° C. for 1 hour; read-out: m HSD1 in vitro assay (IC50 uM). Summed up: as §1

Where two headings read alike, the source gives them in different places.

T1 sequence (P28845 whole entry): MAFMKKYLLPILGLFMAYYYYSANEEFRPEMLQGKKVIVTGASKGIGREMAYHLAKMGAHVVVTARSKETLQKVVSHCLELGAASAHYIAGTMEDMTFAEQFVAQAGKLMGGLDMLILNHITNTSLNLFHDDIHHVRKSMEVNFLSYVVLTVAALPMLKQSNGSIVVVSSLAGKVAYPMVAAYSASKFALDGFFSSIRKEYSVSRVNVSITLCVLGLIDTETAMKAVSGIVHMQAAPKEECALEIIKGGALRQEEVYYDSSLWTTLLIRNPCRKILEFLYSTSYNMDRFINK
T2 sequence (P50172 whole entry): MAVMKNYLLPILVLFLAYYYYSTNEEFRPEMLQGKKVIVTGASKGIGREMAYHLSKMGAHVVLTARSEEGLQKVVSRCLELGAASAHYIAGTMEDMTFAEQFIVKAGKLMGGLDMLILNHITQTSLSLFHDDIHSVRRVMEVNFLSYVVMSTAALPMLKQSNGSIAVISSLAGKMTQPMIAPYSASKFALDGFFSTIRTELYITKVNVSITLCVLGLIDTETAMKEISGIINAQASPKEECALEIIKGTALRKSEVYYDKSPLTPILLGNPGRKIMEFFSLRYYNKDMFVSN

As to `CC1(C)C(=O)N(C2C3CC4CC2CC(C(N)=O)(C4)C3)N1c1cccc2ccccc12` (stereo not drawn) [Example 273, cis-4-[2-(naphthalen-1-yl)-3,3-dimethyl-4-oxo-1,2-diazetidin-1-yl]adamantane-1-carboxamide], the values for the IC50 on human 11β-HSD1 (Table 1), at human 11β-HSD1 (Table 2) and on mouse 11β-HSD1 were 0.02 µM, 0.02 µM and 0.1 µM, respectively.
Consider `CC1(C)C(=O)N(C2C3CC4CC(C3)CC2C4)N1Cc1ccccc1` (stereo not shown) [Example 12, 1-benzyl-4,4-dimethyl-2-(adamantan-2-yl)-1,2-diazetidin-3-one], for which the IC50 on human 11β-HSD1 (Table 2) turned out to be 0.047 µM; at mouse 11β-HSD1, 0.023 µM.
Consider `CC1(C)C(=O)N(C2C3CC4CC(C3)CC2C4)N1Cc1cccc(Br)c1` (stereo not shown) [Example 33, 1-(3-bromobenzyl)-4,4-dimethyl-2-(adamantan-2-yl)-1,2-diazetidin-3-one], for which the IC50 amounted to 0.38 µM on human 11β-HSD1 (Table 2) and 0.086 µM at mouse 11β-HSD1.
On to `CC1(C)C(=O)N(C2C3CC4CC(C3)CC2C4)N1Cc1ccccc1Cl` (stereo not shown) [Example 27, 1-(2-chlorobenzyl)-4,4-dimethyl-2-(adamantan-2-yl)-1,2-diazetidin-3-one], for which the IC50 at human 11β-HSD1 (Table 2) stood at 0.03 µM; at mouse 11β-HSD1, 0.094 µM.
Take `CC1(C)C(=O)N([C@H]2C3CC4CC2C[C@@](Cl)(C4)C3)N1c1cccc2ccccc12` [Example 257, cis-2-(5-chloroadamantan-2-yl)-4,4-dimethyl-1-(naphthalen-1-yl)-1,2-diazetidin-3-one]: the IC50 at human 11β-HSD1 (Table 1) and at mouse 11β-HSD1 was 0.24 µM in each case.
For `CC1(C)C(=O)N(C2C3CC4CC(C3)CC2C4)N1Cc1cccc(I)c1` (stereo not shown) [Example 35, 1-(3-iodobenzyl)-4,4-dimethyl-2-(adamantan-2-yl)-1,2-diazetidin-3-one], the IC50 at human 11β-HSD1 (Table 2) is 0.44 µM; on mouse 11β-HSD1, 0.15 µM.
With `CC1(C)C(=O)N(C2CCCCCC2)N1Cc1cccc(Cl)c1Cl` [Example 84, 2-cycloheptyl-1-(2,3-dichlorobenzyl)-4,4-dimethyl-1,2-diazetidin-3-one], the IC50 at human 11β-HSD1 (Table 2) amounted to 0.13 µM; at mouse 11β-HSD1, 0.61 µM.
As to `CC1(C)C(=O)N([C@H]2C3CC4CC2C[C@](O)(C4)C3)N1Cc1cc(F)ccc1Cl` [Example 67, trans-1-(2-chloro-5-fluorobenzyl)-2-(5-hydroxyadamantan-2-yl)-4,4-dimethyl-1,2-diazetidin-3-one], the values for the IC50 on human 11β-HSD1 (Table 2) and at mouse 11β-HSD1 were 0.12 µM and 0.29 µM, respectively.
For `CC1(C)C(=O)N(C2CCCCCC2)N1Cc1cc(F)ccc1Cl` [Example 87, 1-(2-chloro-5-fluorobenzyl)-2-cycloheptyl-4,4-dimethyl-1,2-diazetidin-3-one] the same measures were 0.1 µM and 0.85 µM.
`CC1(C)C(=O)N(C2C3CC4CC(C3)CC2C4)N1Cc1ccc(C(F)(F)F)cc1` (stereo not shown) [Example 36, 4,4-dimethyl-2-(adamantan-2-yl)-1-[4-(trifluoromethyl)benzyl]-1,2-diazetidin-3-one]: the IC50 at human 11β-HSD1 (Table 2) was 0.69 µM; on mouse 11β-HSD1, 0.21 µM.
The corresponding values for `CC1(C)C(=O)N(C2C3CC4CC(C3)CC2C4)N1Cc1ccc(F)cc1Cl` (stereo not shown) [Example 45, 1-(2-chloro-4-fluorobenzyl)-4,4-dimethyl-2-(adamantan-2-yl)-1,2-diazetidin-3-one] are 0.079 µM and 0.14 µM.
As to `CC1(C)C(=O)N([C@H]2C3CC4CC2C[C@](C(N)=O)(C4)C3)N1c1cccc(Cl)c1Cl` [Example 277, trans-4-[2-(2,3-dichlorophenyl)-3,3-dimethyl-4-oxo-1,2-diazetidin-1-yl]adamantane-1-carboxamide], the results for the IC50 on human 11β-HSD1 (Table 1) and at mouse 11β-HSD1 were 0.007 µM and 0.4 µM, respectively.
Take `CC1(C)C(=O)N(C2C3CC4CC(C3)CC2C4)N1Cc1ccccc1[N+](=O)[O-]` (stereo not shown) [Example 47, 4,4-dimethyl-1-(2-nitrobenzyl)-2-(adamantan-2-yl)-1,2-diazetidin-3-one]: the IC50 is 0.2 µM on human 11β-HSD1 (Table 2) and 0.58 µM on mouse 11β-HSD1.
As to `Cc1ccc(C(=O)N2N(C3C4CC5CC(C4)CC3C5)C(=O)C2(C)C)cc1` (stereo not shown) [Example 114, 4,4-dimethyl-1-[(4-methylphenyl)carbonyl]-2-(adamantan-2-yl)-1,2-diazetidin-3-one], the IC50 worked out at 0.54 µM at human 11β-HSD1 (Table 2) and 0.11 µM at mouse 11β-HSD1.
Consider `CC1(C)C(=O)N(C2C3CC4CC(C3)CC2C4)N1C(=O)c1cccc(Cl)c1` (stereo not shown) [Example 128, 1-[(3-chlorophenyl)carbonyl]-4,4-dimethyl-2-(adamantan-2-yl)-1,2-diazetidin-3-one], for which the IC50 on human 11β-HSD1 (Table 1) was determined as 0.5 µM; at mouse 11β-HSD1 it was 0.1 µM.
Turning to `CC1(C)C(=O)N(C2C3CC4CC(C3)CC2C4)N1Cc1c(F)cccc1Cl` (stereo not shown) [Example 46, 1-(2-chloro-6-fluorobenzyl)-4,4-dimethyl-2-(adamantan-2-yl)-1,2-diazetidin-3-one], the IC50 was determined as 0.23 µM on human 11β-HSD1 (Table 2) and 0.45 µM on mouse 11β-HSD1.
Turning to `CC1(C)C(=O)N(C2C3CC4CC(C3)CC2C4)N1C(=O)c1ccc2c(c1)OCO2` (stereo not shown) [Example 135, 1-(1,3-benzodioxol-5-ylcarbonyl)-4,4-dimethyl-2-(adamantan-2-yl)-1,2-diazetidin-3-one], the IC50 on human 11β-HSD1 (Table 2) came out at 0.76 µM; on mouse 11β-HSD1 it was 0.11 µM.
Turning to `CC1(C)C(=O)N(C2C3CC4CC(C3)CC2C4)N1Cc1ccccc1-c1ccccc1` (stereo not shown) [Example 49, 1-(biphenyl-2-ylmethyl)-4,4-dimethyl-2-(adamantan-2-yl)-1,2-diazetidin-3-one], the IC50 at human 11β-HSD1 (Table 1) was 0.8 µM; on mouse 11β-HSD1 it was 0.31 µM.
For the compound `CC1(C)C(=O)N(C2C3CC4CC(C3)CC2C4)N1Cc1ccccc1F` (stereo not shown) [Example 38, 1-(2-fluorobenzyl)-4,4-dimethyl-2-(adamantan-2-yl)-1,2-diazetidin-3-one], the IC50 is 0.26 µM at human 11β-HSD1 (Table 2) and 0.1 µM on mouse 11β-HSD1.
On to `Cc1ccccc1C(=O)N1N(C2C3CC4CC(C3)CC2C4)C(=O)C1(C)C` (stereo not shown) [Example 116, 4,4-dimethyl-1-[(2-methylphenyl)carbonyl]-2-(adamantan-2-yl)-1,2-diazetidin-3-one], for which the IC50 at human 11β-HSD1 (Table 1) amounted to 0.13 µM; on mouse 11β-HSD1, 0.15 µM.
Regarding `CC1(C)C(=O)N(C2C3CC4CC(C3)CC2C4)N1c1ccc(N)cc1` (stereo not shown) [Example 183, 1-(4-aminophenyl)-4,4-dimethyl-2-(adamantan-2-yl)-1,2-diazetidin-3-one], the concentration for half-maximal inhibition (IC50) on human 11β-HSD1 (Table 2) came to 0.057 µM; at mouse 11β-HSD1 it was 0.76 µM.
Regarding `Cc1cccc(N2N(C3C4CC5CC(C4)CC3C5)C(=O)C2(C)C)c1` (stereo not shown) [Example 193, 4,4-dimethyl-1-(3-methylphenyl)-2-(adamantan-2-yl)-1,2-diazetidin-3-one], the IC50 is 0.86 µM at human 11β-HSD1 (Table 2) and 0.36 µM on mouse 11β-HSD1.
For `CC1(C)C(=O)N(C2C3CC4CC(C3)CC2C4)N1C(=O)c1cccc(Br)c1` (stereo not shown) [Example 113, 1-[(3-bromophenyl)carbonyl]-4,4-dimethyl-2-(adamantan-2-yl)-1,2-diazetidin-3-one] the same measures were 0.42 µM and 0.12 µM.
For the compound `CC1(C)C(=O)N(C2C3CC4CC(C3)CC2C4)N1Cc1cccc(F)c1F` (stereo not shown) [Example 19, 1-(2,3-difluorobenzyl)-4,4-dimethyl-2-(adamantan-2-yl)-1,2-diazetidin-3-one], the figures for the IC50 on human 11β-HSD1 (Table 2) and on mouse 11β-HSD1 were 0.47 µM and 0.27 µM, respectively.
Regarding `CC1(C)C(=O)N(C2C3CC4CC(C3)CC2C4)N1Cc1cccc(F)c1` (stereo not shown) [Example 22, 1-(3-fluorobenzyl)-4,4-dimethyl-2-(adamantan-2-yl)-1,2-diazetidin-3-one], the IC50 on human 11β-HSD1 (Table 2) is 0.64 µM; on mouse 11β-HSD1, 0.079 µM.
For the compound `CC1(C)C(=O)N(C2C3CC4CC(C3)CC2C4)N1C(=O)c1ccccc1O` (stereo not shown) [Example 138, 1-[(2-hydroxyphenyl)carbonyl]-4,4-dimethyl-2-(adamantan-2-yl)-1,2-diazetidin-3-one], the half-maximal inhibitory concentration (IC50) was determined as 0.22 µM on human 11β-HSD1 (Table 1) and 0.24 µM at mouse 11β-HSD1.
Take `CC1(C)C(=O)N(C2CCCCCC2)N1Cc1cc(Cl)ccc1Cl` [Example 85, 2-cycloheptyl-1-(2,5-dichlorobenzyl)-4,4-dimethyl-1,2-diazetidin-3-one]: the results for the IC50 on human 11β-HSD1 (Table 2) and at mouse 11β-HSD1 were 0.053 µM and 0.37 µM, respectively.
The corresponding values for `CC1(C)C(=O)N(C2C3CC4CC(C3)CC2C4)N1Cc1ccc(Cl)cc1` (stereo not shown) [Example 13, 1-(4-chlorobenzyl)-4,4-dimethyl-2-(adamantan-2-yl)-1,2-diazetidin-3-one] are 0.058 µM and 0.025 µM.
As for `CC1(C)C(=O)N(C2CC3CCC2C3)N1Cc1ccccc1Cl` (stereo not shown) [Example 78, 2-(bicyclo[2.2.1]heptan-2-yl)-1-(2-chlorobenzyl)-4,4-dimethyl-1,2-diazetidin-3-one], the IC50 was determined as 0.15 µM on human 11β-HSD1 (Table 2) and 0.64 µM at mouse 11β-HSD1.
As for `CC1(C)C(=O)N(C2C3CC4CC(C3)CC2C4)N1Cc1cccc2c1OCO2` (stereo not shown) [Example 61, 1-(1,3-benzodioxol-4-ylmethyl)-4,4-dimethyl-2-(adamantan-2-yl)-1,2-diazetidin-3-one], the values for the IC50 on human 11β-HSD1 (Table 2) and at mouse 11β-HSD1 were 0.23 µM and 0.3 µM, respectively.
For `CC1(C)C(=O)N(C2CCCCCC2)N1Cc1ccccc1Cl` [Example 83, 1-(2-chlorobenzyl)-2-cycloheptyl-4,4-dimethyl-1,2-diazetidin-3-one], the IC50 was determined as 0.092 µM on human 11β-HSD1 (Table 2) and 0.66 µM on mouse 11β-HSD1.
Consider `COc1cccc(N2N(C3C4CC5CC(C4)CC3C5)C(=O)C2(C)C)c1` (stereo not shown) [Example 204, 1-(3-methoxyphenyl)-4,4-dimethyl-2-(adamantan-2-yl)-1,2-diazetidin-3-one], for which the IC50 came to 0.16 µM at human 11β-HSD1 (Table 1) and 0.42 µM on mouse 11β-HSD1.
Take `CC1(C)C(=O)N(C2CC3CCC2C3)N1Cc1cc(Cl)ccc1Cl` (stereo not shown) [Example 80, 2-(bicyclo[2.2.1]heptan-2-yl)-1-(2,5-dichlorobenzyl)-4,4-dimethyl-1,2-diazetidin-3-one]: the IC50 on human 11β-HSD1 (Table 2) turned out to be 0.13 µM; on mouse 11β-HSD1 it was 0.39 µM.
